Source: ChEMBL document CHEMBL1201862, “PubChem BioAssay data set” (2004)
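Five concentrations, 48 hours, 96-well plates. Abbreviation: GI50, concentration required for 50% inhibition of growth.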 Calls of active or inactive are those of the source. Rule as the data show it: active = GI50 up to about 1.1 µM and inactive = higher.

Experiments:
Assay in all cases: NCI tumour cell line growth inhibition, 48 h
786-0 = tested on: 786-0
A498 = tested on: A498
A549 = tested on: A549
ACHN = tested on: ACHN
CCRF-CEM = tested on: CCRF-CEM
COLO 205 = tested on: COLO 205
DLD-1 = tested on: DLD-1
DMS-114 = tested on: DMS-114
EKVX = tested on: EKVX
HCC 2998 = tested on: HCC 2998
HCT-116 = tested on: HCT-116
HCT-15 = tested on: HCT-15
HL-60 = tested on: HL-60
HOP-18 = tested on: HOP-18
HOP-62 = tested on: HOP-62
HOP-92 = tested on: HOP-92
HT-29 = tested on: HT-29
IGROV-1 = tested on: IGROV-1
K562 = tested on: K562
KM-20L2 = tested on: KM-20L2
KM12 = tested on: KM12
LOX IMVI = tested on: LOX IMVI
LXFL 529 = tested on: LXFL 529
M14 = tested on: M14
M19-MEL = tested on: M19-MEL
MOLT-4 = tested on: MOLT-4
Malme-3M = tested on: Malme-3M
NCI-H226 = tested on: NCI-H226
NCI-H23 = tested on: NCI-H23
NCI-H460 = tested on: NCI-H460
NCI-H522 = tested on: NCI-H522
OVCAR-3 = tested on: OVCAR-3
OVCAR-4 = tested on: OVCAR-4
OVCAR-5 = tested on: OVCAR-5
OVCAR-8 = tested on: OVCAR-8
RPMI-8226 = tested on: RPMI-8226
RXF 393 = tested on: RXF 393
RXF 631 = tested on: RXF 631
SF-268 = tested on: SF-268
SF-295 = tested on: SF-295
SF-539 = tested on: SF-539
SK-MEL-28 = tested on: SK-MEL-28
SK-MEL-2 = tested on: SK-MEL-2
SK-MEL-5 = tested on: SK-MEL-5
SK-OV-3 = tested on: SK-OV-3
SN12C = tested on: SN12C
SNB-19 = tested on: SNB-19
SNB-75 = tested on: SNB-75
SNB-78 = tested on: SNB-78
SW-620 = tested on: SW-620
TK-10 = tested on: TK-10
U-251 = tested on: U-251
UACC-257 = tested on: UACC-257
UACC-62 = tested on: UACC-62
UO-31 = tested on: UO-31

Measured: GI50

COc1ccc(/C(=N/NC(=O)NN)C(c2ccc(OC)cc2)C2(O)CNc3c(Cl)cc(Cl)cc32)cc1 (stereo not given)
> 100 µM: HCT-15
inactive: 786-0 > 100 µM | A498 > 100 µM | A549 > 100 µM | ACHN > 100 µM | CCRF-CEM 88.9 µM | COLO 205 > 100 µM | DLD-1 > 100 µM | DMS-114 71.8 µM | EKVX > 100 µM | HCC 2998 > 100 µM | HCT-116 50.9 µM | HL-60 > 100 µM | HOP-18 53.2 µM | HOP-62 > 100 µM | HOP-92 37.7 µM | HT-29 89.9 µM | IGROV-1 > 100 µM | K562 > 100 µM | KM-20L2 > 100 µM | KM12 > 100 µM | LOX IMVI > 100 µM | LXFL 529 65.6 µM | M14 > 100 µM | M19-MEL > 100 µM | MOLT-4 44.7 µM | Malme-3M > 100 µM | NCI-H226 > 100 µM | NCI-H23 > 100 µM | NCI-H460 > 100 µM | NCI-H522 > 100 µM | OVCAR-3 > 100 µM | OVCAR-4 > 100 µM | OVCAR-5 > 100 µM | OVCAR-8 > 100 µM | RPMI-8226 60.8 µM | RXF 393 > 100 µM | RXF 631 48.3 µM | SF-268 > 100 µM | SF-295 > 100 µM | SF-539 > 100 µM | SK-MEL-28 > 100 µM | SK-MEL-2 > 100 µM | SK-MEL-5 > 100 µM | SK-OV-3 81.8 µM | SN12C > 100 µM | SNB-19 > 100 µM | SNB-75 > 100 µM | SNB-78 > 100 µM | SW-620 > 100 µM | TK-10 > 100 µM | U-251 > 100 µM | UACC-257 > 100 µM | UACC-62 99.1 µM | UO-31 > 100 µM
